Source: the CheMixHub viscosity set

Assay: xn = mol fraction of the nth substance listed

CCCCCCCCN + CCOCCO
308.15 K, 101 kPa
Conditions	viscosity [mPa·s]
x2 = 0.1595	1.136
x2 = 0.4226	1.512
x2 = 0.5324	1.655
x2 = 0.6307	1.75
x2 = 0.7193	1.725
x2 = 0.7994	1.654
x2 = 0.8723	1.568
x2 = 0.9389	1.497

CCCCCCCCCCCCO + CCCCCCO
viscosity [mPa·s], 101.8 kPa
Conditions	x2 = 0.1701	x2 = 0.4377	x2 = 0.6449	x2 = 0.8097	x2 = 0.9429
298.15 K	14.45	10.7	8.172	6.334	5.053
308.15 K	9.897	7.517	5.841	4.64	3.754
318.15 K	6.978	5.411	4.279	3.455	2.829

CC(C)CCCC(C)CCCC(C)CCCCC(C)CCCC(C)CCCC(C)C (configuration not stated) + CCCCCCCCO
Conditions	viscosity [mPa·s]
298.15 K, 101 kPa, x2 = 0.5974	13.55

CC(C)CCCC(C)CCCC(C)CCCC(C)C (configuration not stated) + CCCCCCCCCCCCCCCC
298.15 K, 101.33 kPa
Conditions	viscosity [mPa·s]
x2 = 0.0966	5.129
x2 = 0.1996	4.843
x2 = 0.2995	4.565
x2 = 0.3995	4.303
x2 = 0.4994	4.063
x2 = 0.5995	3.839
x2 = 0.6995	3.631
x2 = 0.8001	3.438
x2 = 0.85	3.332

Cc1ccc(C)cc1 + CC(C)CC(C)(C)C
308.15 K, 101 kPa
Conditions	viscosity [mPa·s]
x2 = 0.072	0.5266
x2 = 0.1401	0.5074
x2 = 0.2197	0.4893
x2 = 0.3074	0.4732
x2 = 0.4051	0.4595
x2 = 0.507	0.4479
x2 = 0.6185	0.44
x2 = 0.7382	0.4348
x2 = 0.8619	0.4333

c1ccc(Nc2ccccc2)cc1 + CO
viscosity [mPa·s]
Conditions	298.15 K	303.15 K	308.15 K	313.15 K	318.15 K
101 kPa, x1 = 0.03649	0.814	0.739	0.6818	0.6313	0.584
101 kPa, x1 = 0.06942	1.012	0.9262	0.8495	0.7809	0.7151
101.33 kPa, x1 = 0.04	0.814	0.739	0.6818	0.6313	0.584
101.33 kPa, x1 = 0.0694	1.012	0.9262	0.8495	0.7809	0.7151

CCCCCCCCCCCCO + CCCCCCCO
viscosity [mPa·s], 101.8 kPa
Conditions	x2 = 0.1535	x2 = 0.4063	x2 = 0.6158	x2 = 0.7897	x2 = 0.937
298.15 K	14.93	11.89	9.619	7.876	6.209
308.15 K	10.25	8.286	6.789	5.642	4.516
318.15 K	7.217	5.917	4.913	4.132	3.362

CCCOC(=O)CCC + CCCCCCCCCC
298.15 K, 101.33 kPa
Conditions	viscosity [mPa·s]
x2 = 0.107	0.775
x2 = 0.1388	0.773
x2 = 0.1735	0.771
x2 = 0.2644	0.768
x2 = 0.3659	0.768
x2 = 0.4232	0.769
x2 = 0.5092	0.773
x2 = 0.6715	0.79
x2 = 0.7654	0.804
x2 = 0.8807	0.828
x2 = 0.9329	0.841

CCCCCCCCCCCCO + C1CCCCC1
303.15 K, 101.33 kPa
Conditions	viscosity [mPa·s]
x1 = 0.0858	1.109
x1 = 0.1621	1.502
x1 = 0.305	2.569
x1 = 0.405	3.522
x1 = 0.506	4.63
x1 = 0.5985	5.781
x1 = 0.6982	7.191
x1 = 0.7746	8.412
x1 = 0.862	9.989

CC(C)CCCC(C)CCCC(C)CCCCC(C)CCCC(C)CCCC(C)C (configuration not stated) + CC(C)CO
101 kPa
Conditions	viscosity [mPa·s]
298.15 K, x2 = 0.1032	22.85
308.15 K, x2 = 0.1672	13.45

[Cl-].[Cl-].[Cl-].[Cl-].[Ge+4] + CCOCC
293.15 K, 101 kPa
Conditions	viscosity [mPa·s]
x2 = 0.2064	0.5
x2 = 0.4027	0.415
x2 = 0.5137	0.376
x2 = 0.6832	0.309
x2 = 0.7964	0.279

Cc1ccc(C)cc1 + CO
viscosity [mPa·s], 101 kPa
Conditions	x1 = 0.0352	x1 = 0.0758	x1 = 0.1233	x1 = 0.1795	x1 = 0.247	x1 = 0.3298	x1 = 0.4336	x1 = 0.5673	x1 = 0.747
293.15 K	0.6087	0.6353	0.6635	0.6929	0.7227	0.7509	0.7731	0.7803	0.7526
298.15 K	0.5596	0.5732	0.5877	0.6031	0.6191	0.6348	0.6483	0.656	0.6489
308.15 K	0.4893	0.4993	0.5103	0.522	0.5342	0.5465	0.558	0.5669	0.5649
318.15 K	0.4296	0.4369	0.4449	0.4536	0.4628	0.4725	0.4823	0.4899	0.4933

O.O.O.O.O.O=S(=O)([O-])[S-].[Na+].[Na+] + N#C[S-].[K+]
101.33 kPa, x2 = 0.3
Conditions	viscosity [mPa·s]
294 K	39.21
298 K	31.11
303 K	24.56
308 K	19.44
313 K	15.6
318 K	13.1
323 K	10.89
